# Patent publication US20080274061A1, “Method for Treating a Restless Limb Disorder” (priority 2007, published 2008)
# Where a name gives a salt, the structure may show the parent alone. Read-outs that look alike come from different tables or passages of the source.
# Tests used:
# [1] = system: subjects with idiopathic RLS; experiment: Clinical trial: subject-rated severity of RLS sensory symptoms during Suggested Immobilization Tests; type: in vivo, human; conditions: for onset of action after administration: doses of 124 μg and 247 μg, intranasal; for maximum mean reduction from baseline in severity scores: single delivery, 0-10 scale
# Experimental: This example relates to a randomized, double-blind, placebo-controlled parallel-group proof-of-concept trial which assessed the efficacy, safety and tolerability of ascending doses of rotigotine nasal spray for the treatment of acute symptoms of RLS in subjects with idiopathic RLS. This was evaluated by subject rating of severity of symptoms (sensory symptoms) on a numeric symptoms severity scale and by the Periodic Limb Movement (PLM) index (motor symptoms) as measured by actigraphy following triggering of symptoms by immobilization. […] Subjects randomized to the “placebo group” received a single delivery of matching placebo nasal spray on each treatment day. […] It has been shown that immobilization results in worsening of both motor and sensory components of RLS symptoms. […] On each treatment day, the trial medication was administered 30 minutes after the start of the pre-dose SIT-0 or as soon as the subject's severity score reaches 5 on the numeric symptom severity scale, whichever is sooner. The last scoring prior to dosing is defined as the baseline value for each individual subject. • 1. […] PLM during Wakefulness Index (PLMWI) for each SIT and for specified time sections of each SIT (PLM during awake epochs/h, motor symptoms) was evaluated based on PLM measurements by means of actigraphy, recorded over the entire duration of the SIT period (pre dose and post dose SIT-0 to SIT-6, approximately 4.5 hours). Severity of symptoms in the legs was assessed by subject ratings using a numeric symptoms severity scale at the start of each pre-dose and post-dose SIT-0 to SIT-6 and every 5 minutes during each SIT. Scores on the scale range from 0 (‘no symptoms’) to 10 (‘very severe’).
# [2] = Comparative storage test of aqueous rotigotine HCl solution with/without α-cyclodextrin; type: physicochemical; conditions: storage at 60° C. for 8 weeks, solution of 1.6 mg/ml with α-cyclodextrin
# [3] = Maximum solubility in aqueous cyclodextrin solution at room temperature, isocratic HPLC; type: physicochemical; conditions: aqueous solution and aqueous solutions containing α- or β-cyclodextrin
# Experimental: The concentration was determined by isocratic HPLC analysis. HPLC column LiChroCART 75×4 mm, Superspher 60 RP-select B 5 μm (Merck), column temperature: 30° C., mobile phase:water/acetonitrile/methanesulfonic acid (65/35/0.05 v/v/v), flow rate: 2 ml/min, injection volume: 50 μl, detection at 220 nm, retention time approx. 1.5 min. The concentration was determined by use of an external reference solution having known concentration.
# [4] = system: subjects with idiopathic RLS; experiment: Clinical trial: PLM during Wakefulness Index (PLMWI) by actigraphy during SITs; type: in vivo, human; conditions: highest dose (247 μg) nasal spray
# Experimental: This example relates to a randomized, double-blind, placebo-controlled parallel-group proof-of-concept trial which assessed the efficacy, safety and tolerability of ascending doses of rotigotine nasal spray for the treatment of acute symptoms of RLS in subjects with idiopathic RLS. This was evaluated by subject rating of severity of symptoms (sensory symptoms) on a numeric symptoms severity scale and by the Periodic Limb Movement (PLM) index (motor symptoms) as measured by actigraphy following triggering of symptoms by immobilization. […] Subjects randomized to the “placebo group” received a single delivery of matching placebo nasal spray on each treatment day. • 1. […] PLM during Wakefulness Index (PLMWI) for each SIT and for specified time sections of each SIT (PLM during awake epochs/h, motor symptoms) was evaluated based on PLM measurements by means of actigraphy, recorded over the entire duration of the SIT period (pre dose and post dose SIT-0 to SIT-6, approximately 4.5 hours). RLS is usually associated with involuntary PLM occurring in wakefulness (PMLW) and sleep (PMLS) in 80-85% of RLS patients. […] A central reader was used to standardize PLM evaluation of the actigraphy measurements performed during the SIT period. […]
# [5] = buccal, nasal or rectal administration to rats as HCl salt, compared with oral dosing; cited from earlier work
# [6] = orally (perorally) administered, first-pass metabolism in the liver; cited from earlier work
# [7] = effect of glycerol, in vitro permeation assays; cited from earlier work
decrease in the rotigotine concentration [2],solubility (in words) [3],Compound,onset of action after administration [1],maximum mean reduction from baseline in severity scores ([1]; 62 μg nasal spray),maximum mean reduction from baseline in severity scores ([1]; 124 μg nasal spray),maximum mean reduction from baseline in severity scores ([1]; 247 μg nasal spray),"decrease in the mean severity scores ([1]; doses of 124 μg and 247 μg nasal spray, SIT-1 through SIT-6, 0-10 scale)",decrease from baseline in the PLMWI [4],bioavailability (in words) [5],bioavailability (in words) [6],absorption through bovine nasal mucosa (in words) [7]
-0.07 mg/mL,–,CCCN(CCc1cccs1)[C@H]1CCc2c(O)cccc2C1 [Rotigotine HCl],10 min,–,–,–,–,–,–,–,–
–,practically insoluble,CCCN(CCc1cccs1)[C@H]1CCc2c(O)cccc2C1 [Rotigotine base],–,–,–,–,–,–,–,–,–
–,–,"CCCN(CCc1cccs1)[C@H]1CCc2c(O)cccc2C1 [rotigotine, (−)-5,6,7,8-tetrahydro-6-[propyl[2-(2-thienyl)ethyl]amino]-1-naphthol]",10 min,−0.8 points,−2.0 points,−2.3 points,approximately 2 points,approximately 10 points,improved bioavailability,close to zero,enhance absorption
